# Starred links: 1 amine or outer side, 2 acyl side, 3 side chain; linkers in the order of their positions; H or OH if unused. Non-standard residues stand in square brackets, D forms with d. Residues, ends and D or L forms follow the SMILES beside them. Groups on a side chain read outwards from the residue. *: point of attachment. X1 = O=C(O)CCCCCCCCCCCCCCCCCCC(=O)N1CCN(CC(=O)*)CC1; C20 diacid = O=C(O)CCCCCCCCCCCCCCCCCCC(=O)*; γGlu = O=C(O)[C@H](CCC(=O)[*:2])N[*:1]; AEEA = NCCOCCOCC(=O)O; Aib = CC(C)(N)C(=O)O
# Assays:
# human GIP R = target: T1, human GIP R (Homo sapiens, UniProt P48546); test: cell-based
# T1 sequence (P48546 22-466): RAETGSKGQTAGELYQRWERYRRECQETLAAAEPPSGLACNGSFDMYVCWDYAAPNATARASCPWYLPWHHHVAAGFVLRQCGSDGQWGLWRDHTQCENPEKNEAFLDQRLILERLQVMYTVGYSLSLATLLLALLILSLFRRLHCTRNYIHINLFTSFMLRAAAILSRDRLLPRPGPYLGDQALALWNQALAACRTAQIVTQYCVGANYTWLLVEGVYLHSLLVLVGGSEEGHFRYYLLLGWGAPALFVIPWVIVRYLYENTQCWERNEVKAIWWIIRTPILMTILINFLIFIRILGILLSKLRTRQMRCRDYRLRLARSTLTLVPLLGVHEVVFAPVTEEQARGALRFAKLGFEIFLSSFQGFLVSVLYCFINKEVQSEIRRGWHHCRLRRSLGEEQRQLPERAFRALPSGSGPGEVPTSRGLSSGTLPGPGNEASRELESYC
# [1] = target: T2, human GIP receptor (GIP R) (Homo sapiens, UniProt P48546); test: Activity assay at human GIP receptor, cAMP induction (AlphaScreen), Example 3
# T2 sequence (P48546 22-466): T1 sequence (P48546 22-466)
# [2] = target: human GLP-1 receptor (GLP-1R) (Homo sapiens, UniProt P43220); test: Activity assay at human GLP-1 receptor, cAMP induction (AlphaScreen), Example 3
# Sequence of human GLP-1 receptor (GLP-1R) (P43220 24-463): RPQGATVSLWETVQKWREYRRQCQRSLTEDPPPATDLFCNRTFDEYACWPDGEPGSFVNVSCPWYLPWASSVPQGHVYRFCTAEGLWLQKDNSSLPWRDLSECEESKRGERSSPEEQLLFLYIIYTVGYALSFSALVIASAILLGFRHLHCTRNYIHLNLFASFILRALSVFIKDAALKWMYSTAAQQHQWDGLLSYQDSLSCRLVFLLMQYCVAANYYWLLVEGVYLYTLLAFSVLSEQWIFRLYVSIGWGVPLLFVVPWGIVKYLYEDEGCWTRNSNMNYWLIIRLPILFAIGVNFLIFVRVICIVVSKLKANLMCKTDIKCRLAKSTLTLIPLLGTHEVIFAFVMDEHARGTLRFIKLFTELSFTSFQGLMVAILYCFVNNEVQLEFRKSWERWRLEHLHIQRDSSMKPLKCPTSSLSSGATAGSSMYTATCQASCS
Structure (SMILES),EC50 (human GIP R) [pM],EC50 [1] [pM],EC50 [2] [pM]
CC[C@H](C)[C@H](NC(=O)[C@H](CO)NC(=O)[C@H](Cc1ccc(O)cc1)NC(=O)[C@H](CC(=O)O)NC(=O)[C@H](CO)NC(=O)[C@@H](NC(=O)[C@H](Cc1ccccc1)NC(=O)[C@@H](NC(=O)CNC(=O)[C@H](CCC(=O)O)NC(=O)C(C)(C)NC(=O)[C@@H](N)Cc1ccc(O)cc1)[C@@H](C)O)[C@@H](C)CC)C(=O)N[C@@H](CCC(=O)O)C(=O)N[C@@H](CC(C)C)C(=O)N[C@@H](CC(=O)O)C(=O)N[C@@H](CCCCN)C(=O)N[C@@H](CCCCNC(=O)COCCOCCNC(=O)COCCOCCNC(=O)CC[C@H](NC(=O)CCCCCCCCCCCCCCCCCCC(=O)O)C(=O)O)C(=O)N[C@@H](C)C(=O)N[C@@H](CCC(N)=O)C(=O)N[C@@H](CCCCN)C(=O)N[C@@H](CCC(=O)O)C(=O)N[C@@H](Cc1ccccc1)C(=O)N[C@H](C(=O)N[C@@H](CCC(=O)O)C(=O)N[C@@H](Cc1c[nH]c2ccccc12)C(=O)N[C@@H](CC(C)C)C(=O)N[C@@H](CC(C)C)C(=O)N[C@@H](C)C(=O)N[C@@H](C)C(=O)NCC(=O)N1CCC[C@H]1C(=O)N[C@@H](CO)C(=O)N[C@@H](CO)C(=O)NCC(=O)N[C@@H](C)C(=O)N1CCC[C@H]1C(=O)N1CCC[C@H]1C(=O)N1CCC[C@H]1C(=O)N[C@@H](CO)C(N)=O)C(C)C [Compound 22] (H-Y[Aib]EGTFISDYSIELDKK([AEEA-AEEA-γGlu-C20 diacid])AQKEFVEWLLAAGPSSGAPPPS-NH2),5,7,> 10000
CC[C@H](C)[C@H](NC(=O)[C@H](CCCCN)NC(=O)[C@H](CC(=O)O)NC(=O)[C@H](CC(C)C)NC(=O)[C@H](CCC(=O)O)NC(=O)[C@@H](NC(=O)[C@H](CO)NC(=O)[C@H](Cc1ccc(O)cc1)NC(=O)[C@H](CC(=O)O)NC(=O)[C@H](CO)NC(=O)[C@@H](NC(=O)[C@H](Cc1ccccc1)NC(=O)[C@@H](NC(=O)CNC(=O)[C@H](CCC(=O)O)NC(=O)C(C)(C)NC(=O)[C@@H](N)Cc1ccc(O)cc1)[C@@H](C)O)[C@@H](C)CC)[C@@H](C)CC)C(=O)N[C@@H](C)C(=O)N[C@@H](C)C(=O)N[C@@H](CCC(N)=O)C(=O)N[C@@H](CC(=O)O)C(=O)N[C@@H](Cc1ccccc1)C(=O)N[C@H](C(=O)N[C@@H](CCC(=O)O)C(=O)N[C@@H](Cc1c[nH]c2ccccc12)C(=O)N[C@@H](CC(C)C)C(=O)N[C@@H](CC(C)C)C(=O)N[C@@H](C)C(=O)NCC(=O)N1CCC[C@H]1C(=O)N[C@@H](CO)C(=O)N[C@@H](CO)C(=O)NCC(=O)N[C@@H](C)C(=O)N1CCC[C@H]1C(=O)N1CCC[C@H]1C(=O)N1CCC[C@H]1C(=O)N[C@@H](CO)C(=O)N[C@@H](CCCCNC(=O)COCCOCCNC(=O)COCCOCCNC(=O)CC[C@H](NC(=O)CCCCCCCCCCCCCCCCCCC(=O)O)C(=O)O)C(N)=O)[C@@H](C)CC [Compound 25] (H-Y[Aib]EGTFISDYSIELDKIAAQDFIEWLLAGPSSGAPPPSK([AEEA-AEEA-γGlu-C20 diacid])-NH2),32,8,> 100000
CC[C@H](C)[C@H](NC(=O)[C@H](Cc1ccccc1)NC(=O)[C@H](CC(=O)O)NC(=O)[C@H](CCC(N)=O)NC(=O)[C@H](C)NC(=O)[C@H](C)NC(=O)[C@H](CCCCNC(=O)COCCOCCNC(=O)COCCOCCNC(=O)CC[C@H](NC(=O)CCCCCCCCCCCCCCCCCCC(=O)O)C(=O)O)NC(=O)[C@H](CCCCN)NC(=O)[C@H](CC(=O)O)NC(=O)[C@H](CC(C)C)NC(=O)[C@H](CCC(=O)O)NC(=O)[C@@H](NC(=O)[C@H](CO)NC(=O)[C@H](Cc1ccc(O)cc1)NC(=O)[C@H](CC(=O)O)NC(=O)[C@H](CO)NC(=O)[C@@H](NC(=O)[C@H](Cc1ccccc1)NC(=O)[C@@H](NC(=O)CNC(=O)[C@H](CCC(=O)O)NC(=O)C(C)(C)NC(=O)[C@@H](N)Cc1ccc(O)cc1)[C@@H](C)O)[C@@H](C)CC)[C@@H](C)CC)C(=O)N[C@@H](CC(N)=O)C(=O)N[C@@H](Cc1c[nH]c2ccccc12)C(=O)N[C@@H](CC(C)C)C(=O)N[C@@H](CC(C)C)C(=O)N[C@@H](C)C(=O)N[C@@H](CCC(N)=O)C(=O)NCC(=O)N1CCC[C@H]1C(=O)N[C@@H](CO)C(=O)N[C@@H](CO)C(=O)NCC(=O)N[C@@H](C)C(=O)N1CCC[C@H]1C(=O)N1CCC[C@H]1C(=O)N1CCC[C@H]1C(=O)N[C@@H](CO)C(N)=O [Compound 39] (H-Y[Aib]EGTFISDYSIELDKK([AEEA-AEEA-γGlu-C20 diacid])AAQDFINWLLAQGPSSGAPPPS-NH2),7,1,> 100000
CC[C@H](C)[C@H](NC(=O)[C@H](CO)NC(=O)[C@H](Cc1ccc(O)cc1)NC(=O)[C@H](CC(=O)O)NC(=O)[C@H](CO)NC(=O)[C@@H](NC(=O)[C@H](Cc1ccccc1)NC(=O)[C@@H](NC(=O)CNC(=O)[C@H](CCC(=O)O)NC(=O)C(C)(C)NC(=O)[C@@H](N)Cc1ccc(O)cc1)[C@@H](C)O)[C@@H](C)CC)C(=O)N[C@@H](CCC(=O)O)C(=O)N[C@@H](CC(C)C)C(=O)N[C@@H](CC(=O)O)C(=O)N[C@@H](CCCCN)C(=O)N[C@@H](CCCCNC(=O)COCCOCCNC(=O)COCCOCCNC(=O)CC[C@H](NC(=O)CCCCCCCCCCCCCCCCCCC(=O)O)C(=O)O)C(=O)N[C@@H](C)C(=O)N[C@@H](C)C(=O)N[C@@H](CCC(N)=O)C(=O)N[C@@H](C)C(=O)N[C@@H](Cc1ccccc1)C(=O)N[C@H](C(=O)N[C@@H](CC(N)=O)C(=O)N[C@@H](Cc1c[nH]c2ccccc12)C(=O)N[C@@H](CC(C)C)C(=O)N[C@@H](CC(C)C)C(=O)N[C@@H](C)C(=O)NCC(=O)N1CCC[C@H]1C(=O)N[C@@H](CO)C(=O)N[C@@H](CO)C(=O)NCC(=O)N[C@@H](C)C(=O)N1CCC[C@H]1C(=O)N1CCC[C@H]1C(=O)N1CCC[C@H]1C(=O)N[C@@H](CO)C(N)=O)C(C)C [Compound 29] (H-Y[Aib]EGTFISDYSIELDKK([AEEA-AEEA-γGlu-C20 diacid])AAQAFVNWLLAGPSSGAPPPS-NH2),14,7,> 100000
CC[C@H](C)[C@H](NC(=O)[C@H](Cc1ccccc1)NC(=O)[C@H](C)NC(=O)[C@H](CCCNC(=N)N)NC(=O)[C@H](CCC(N)=O)NC(=O)[C@H](C)NC(=O)[C@H](CCCCNC(=O)COCCOCCNC(=O)COCCOCCNC(=O)CN1CCN(C(=O)CCCCCCCCCCCCCCCCCCC(=O)O)CC1)NC(=O)[C@H](CCCCN)NC(=O)[C@H](CC(=O)O)NC(=O)[C@H](CC(C)C)NC(=O)[C@H](CCC(=O)O)NC(=O)[C@@H](NC(=O)[C@H](CO)NC(=O)[C@H](Cc1ccc(O)cc1)NC(=O)[C@H](CC(=O)O)NC(=O)[C@H](CO)NC(=O)[C@@H](NC(=O)[C@H](Cc1ccccc1)NC(=O)[C@@H](NC(=O)CNC(=O)[C@H](CCC(=O)O)NC(=O)C(C)(C)NC(=O)[C@@H](N)Cc1ccc(O)cc1)[C@@H](C)O)[C@@H](C)CC)[C@@H](C)CC)C(=O)N[C@@H](CCC(=O)O)C(=O)N[C@@H](Cc1c[nH]c2ccccc12)C(=O)N[C@@H](CC(C)C)C(=O)N[C@@H](CC(C)C)C(=O)N[C@@H](C)C(=O)N[C@@H](CCC(N)=O)C(=O)NCC(=O)N1CCC[C@H]1C(=O)N[C@@H](CO)C(=O)N[C@@H](CO)C(=O)NCC(=O)N[C@@H](C)C(=O)N1CCC[C@H]1C(=O)N1CCC[C@H]1C(=O)N1CCC[C@H]1C(=O)N[C@@H](CO)C(N)=O [Compound 19] (H-Y[Aib]EGTFISDYSIELDKK([AEEA-AEEA-X1])AQRAFIEWLLAQGPSSGAPPPS-NH2),6,5,> 3000
CC[C@H](C)[C@H](NC(=O)[C@H](CCCCN)NC(=O)[C@H](CCC(=O)O)NC(=O)[C@H](CC(C)C)NC(=O)[C@H](CCC(=O)O)NC(=O)[C@@H](NC(=O)[C@H](CO)NC(=O)[C@H](Cc1ccc(O)cc1)NC(=O)[C@H](CC(=O)O)NC(=O)[C@H](CO)NC(=O)[C@@H](NC(=O)[C@H](Cc1ccccc1)NC(=O)[C@@H](NC(=O)CNC(=O)[C@H](CCC(=O)O)NC(=O)C(C)(C)NC(=O)[C@@H](N)Cc1ccc(O)cc1)[C@@H](C)O)[C@@H](C)CC)[C@@H](C)CC)C(=O)N[C@@H](C)C(=O)N[C@@H](CCC(N)=O)C(=O)N[C@@H](CCCNC(=N)N)C(=O)N[C@@H](C)C(=O)N[C@@H](Cc1ccccc1)C(=O)N[C@H](C(=O)N[C@@H](CCC(=O)O)C(=O)N[C@@H](Cc1c[nH]c2ccccc12)C(=O)N[C@@H](CC(C)C)C(=O)N[C@@H](CC(C)C)C(=O)N[C@@H](C)C(=O)N[C@@H](CCC(N)=O)C(=O)N[C@@H](CCCCNC(=O)COCCOCCNC(=O)COCCOCCNC(=O)CC[C@H](NC(=O)CCCCCCCCCCCCCCCCCCC(=O)O)C(=O)O)C(N)=O)C(C)C [Compound 14] (H-Y[Aib]EGTFISDYSIELEKIAQRAFVEWLLAQK([AEEA-AEEA-γGlu-C20 diacid])-NH2),24,14,> 10000

# — patent US12703729B2, “GIP agonist compounds and methods” (Zealand Pharma A/S, priority 2014, dated 2026)
